ChEMBL document CHEMBL4011591, “Discovery and pharmacological evaluation of a novel series of adamantyl cyanoguanidines as P2X7 receptor antagonists” (Eur J Med Chem, 2017)

Tests used:
[1] = biological target: T1, P2X purinoceptor 7 (Homo sapiens, UniProt Q99572); assay: Antagonist activity at P2X7 receptor in human THP1 cells assessed as inhibition of BzATP-induced YO-PRO-1 Iodide uptake measured every 30 secs for 1 hr by fluorescence assay; format: cell-based
T1 sequence (Q99572 whole entry): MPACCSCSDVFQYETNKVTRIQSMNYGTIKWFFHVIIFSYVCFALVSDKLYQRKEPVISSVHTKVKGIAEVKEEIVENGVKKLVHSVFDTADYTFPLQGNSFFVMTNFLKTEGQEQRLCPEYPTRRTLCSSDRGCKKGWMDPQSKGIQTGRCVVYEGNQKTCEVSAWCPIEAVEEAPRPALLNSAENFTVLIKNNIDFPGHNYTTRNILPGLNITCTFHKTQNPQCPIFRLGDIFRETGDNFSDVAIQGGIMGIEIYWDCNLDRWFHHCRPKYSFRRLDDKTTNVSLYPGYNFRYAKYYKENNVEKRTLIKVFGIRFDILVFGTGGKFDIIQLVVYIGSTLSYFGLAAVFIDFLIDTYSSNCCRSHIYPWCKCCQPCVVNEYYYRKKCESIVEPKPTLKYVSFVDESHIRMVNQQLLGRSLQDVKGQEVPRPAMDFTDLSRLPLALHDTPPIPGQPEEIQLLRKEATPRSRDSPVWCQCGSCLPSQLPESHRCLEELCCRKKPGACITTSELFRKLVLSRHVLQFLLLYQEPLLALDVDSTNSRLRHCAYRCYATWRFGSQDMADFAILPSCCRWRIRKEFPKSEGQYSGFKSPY

[2] = biological target: T2, P2X purinoceptor 7 (Homo sapiens) (UniProt Q99572); assay: Ratio of IC50 for P2X7 receptor in human THP1 cells assessed as inhibition of BzATP-induced YO-PRO-1 Iodide uptake to IC50 for P2X7 receptor in LPS-stimulated human THP1 cells assessed as inhibition of LPS/BzATP-induced IL-1beta release; format: cell-based
T2 sequence (whole entry): T1 sequence (Q99572 whole entry)

[3] = biological target: T1, P2X purinoceptor 7; assay: Antagonist activity at P2X7 receptor in LPS-stimulated human THP1 cells assessed as inhibition of LPS/BzATP-induced IL-1beta release preincubated for 30 mins followed by BzATP addition measured after 30 mins by ELISA
[4] = tested on: Rattus norvegicus; assay: Intrinsic clearance in iv dosed rat; format: ADME, organism-based; conditions: in vivo
[5] = Half life in iv dosed rat; format: ADME, organism-based; conditions: in vivo

| IC50 [1] | SMILES | also measured |
| --- | --- | --- |
| > 10 µM | N#C/N=C(\NCC12CC3CC(CC(C3)C1)C2)Nc1ccccn1 |  |
| > 10 µM | COc1ccc(CN/C(=N/C#N)NCC23CC4CC(CC(C4)C2)C3)cc1 |  |
| 0.447 µM | N#C/N=C(/NCc1ccncc1)NCC12CC3CC(CC(C3)C1)C2 | Ratio IC50 [2]: 1.2; IC50 [3]: 0.389 µM |
| 0.051 µM | COc1ccccc1N/C(=N/C#N)NCC12CC3CC(CC(C3)C1)C2 |  |
| 0.562 µM | COc1ccc(N/C(=N/C#N)NCC23CC4CC(CC(C4)C2)C3)cc1 |  |
| 0.708 µM | N#C/N=C(/NCc1cccc(F)c1)NCC12CC3CC(CC(C3)C1)C2 | Ratio IC50 [2]: 5.4; IC50 [3]: 0.132 µM |
| 0.058 µM | N#C/N=C(\NCC12CC3CC(CC(C3)C1)C2)Nc1ccccc1F |  |
| 0.1 µM | N#C/N=C(\NCC12CC3CC(CC(C3)C1)C2)Nc1ccccc1 |  |
| 0.234 µM | N#C/N=C(/NCc1ccccn1)NCC12CC3CC(CC(C3)C1)C2 | Ratio IC50 [2]: 1.7; IC50 [3]: 0.138 µM |
| 0.562 µM | COc1ccccc1CN/C(=N/C#N)NCC12CC3CC(CC(C3)C1)C2 |  |
| > 10 µM | N#C/N=C(\NCCC12CC3CC(CC(C3)C1)C2)Nc1ccccc1 |  |
| 3.02 µM | N#C/N=C(\NCCC12CC3CC(CC(C3)C1)C2)NCc1ccccc1 |  |
| 0.501 µM | N#C/N=C(/NCc1ccccc1F)NCC12CC3CC(CC(C3)C1)C2 |  |
|  | O=C(CC12CC3CC(CC(C3)C1)C2)Nc1ccc2[nH]ncc2c1 | CL [4]: 47 mL/min/kg; half-life [5]: 1 h |
| 0.417 µM | N#C/N=C(\NCC12CC3CC(CC(C3)C1)C2)Nc1ccncc1 |  |
